Laboratory results reported in patent publication US20240269146A1, “USE OF PELABRESIB FOR TREATING ANEMIAS” (Constellation Pharmaceuticals, Inc., priority 2021, published 2024).
Entries after “also recorded” stand apart in the source; their conditions may differ.

Experiment: Pelabresib Form A monohydrate administered to human subjects with myelofibrosis, with or without ruxolitinib (FIG. 1)
Type: in vivo
Conditions: median starting dose 125 mg QD, max 225 mg QD, median duration 47 weeks
Description: Pelabresib Form A monohydrate was administered to human subjects (with or without ruxolitinib) with a median starting dose of 125 mg QD and a max dose of 225 mg QD for a median duration of 47 weeks. The results of this study are shown in FIG. 1 (Arm 1 being pelabresib Form A and Arm 2 being pelabresib Form A in combination with ruxolitinib).

Cc1noc2c1-c1ccccc1C(c1ccc(Cl)cc1)=N[C@H]2CC(N)=O [pelabresib, 2-((4S)-6-(4-chlorophenyl)-1-methyl-4H-benzo[c]isoxazolo[4,5-e]azepin-4-yl)acetamide]
hemoglobin: improving hemoglobin
reticulocyte count (number of reticulocytes): increases the number of reticulocytes; also recorded: effective in increasing reticulocytes
